Legend:
HUVEC = experiment: Antiangiogenic activity in HUVEC assessed as inhibition of VEGF-stimulated proliferation after 72 hrs by WST-1 assay; type: functional, cell-based; conditions: Homo sapiens
Focal adhesion kinase 1 = Focal adhesion kinase 1 (Homo sapiens, UniProt Q05397); experiment: Inhibition of pre-activated recombinant full length FAK (unknown origin) using ULight labeled poly(Glu/Tyr) as substrate after 1.6 hrs by TR-FRET assay
Sequence of Focal adhesion kinase 1 (Q05397 whole entry): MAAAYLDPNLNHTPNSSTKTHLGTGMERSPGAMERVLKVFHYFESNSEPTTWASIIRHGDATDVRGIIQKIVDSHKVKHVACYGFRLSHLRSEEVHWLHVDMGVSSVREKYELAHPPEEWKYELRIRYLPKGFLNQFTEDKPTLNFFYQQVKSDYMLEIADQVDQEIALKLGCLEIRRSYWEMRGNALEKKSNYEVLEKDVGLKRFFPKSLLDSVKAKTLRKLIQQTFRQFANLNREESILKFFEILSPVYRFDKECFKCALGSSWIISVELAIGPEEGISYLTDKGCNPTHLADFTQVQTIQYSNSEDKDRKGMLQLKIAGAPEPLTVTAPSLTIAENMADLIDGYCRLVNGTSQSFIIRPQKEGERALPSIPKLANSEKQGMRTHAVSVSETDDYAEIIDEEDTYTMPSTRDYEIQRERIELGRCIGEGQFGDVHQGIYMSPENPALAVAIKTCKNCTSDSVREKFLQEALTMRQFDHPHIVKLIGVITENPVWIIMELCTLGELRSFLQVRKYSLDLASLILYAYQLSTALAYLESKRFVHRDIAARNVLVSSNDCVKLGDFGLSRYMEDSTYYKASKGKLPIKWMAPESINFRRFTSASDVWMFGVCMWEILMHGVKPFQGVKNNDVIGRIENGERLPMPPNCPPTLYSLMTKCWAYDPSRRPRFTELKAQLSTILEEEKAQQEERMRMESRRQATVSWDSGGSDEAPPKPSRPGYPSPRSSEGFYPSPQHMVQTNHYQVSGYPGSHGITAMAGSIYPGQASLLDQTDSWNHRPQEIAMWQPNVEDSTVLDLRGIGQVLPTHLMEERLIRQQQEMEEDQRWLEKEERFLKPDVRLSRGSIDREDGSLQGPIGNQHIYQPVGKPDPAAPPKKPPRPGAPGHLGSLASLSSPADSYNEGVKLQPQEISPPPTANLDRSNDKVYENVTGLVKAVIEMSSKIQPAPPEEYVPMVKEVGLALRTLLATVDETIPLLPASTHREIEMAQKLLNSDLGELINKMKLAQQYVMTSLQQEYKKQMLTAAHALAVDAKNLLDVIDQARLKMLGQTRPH

`CC(C)NC(=O)c1ccccc1Nc1ncnc(Nc2ccc(CN)cc2)n1` was tested, and the IC50 (HUVEC) was 3.2 µM and the IC50 (Focal adhesion kinase 1) was 1 µM.

Work on `CCC(CC)NC(=O)c1ccccc1Nc1ncnc(Nc2ccc(CN)cc2)n1` yielded an IC50 (HUVEC) of 1.4 µM and an IC50 (Focal adhesion kinase 1) of 1.9 µM.

In the case of `COc1cc(Nc2ncnc(Nc3ccccc3C(=O)NC(C)C)n2)cc(OC)c1OC`, the IC50 (HUVEC) is reported as 4 µM and the IC50 (Focal adhesion kinase 1) is reported as 2.2 µM.

For `COc1cc(Nc2ncnc(Nc3ccccc3C(=O)NC3CC3)n2)cc(OC)c1OC`, the IC50 (HUVEC) was 5.9 µM and the IC50 (Focal adhesion kinase 1) was 6.1 µM.

`CCC(CC)NC(=O)c1ccccc1Nc1ncnc(Nc2cc(OC)c(OC)c(OC)c2)n1` was tested, and the IC50 (HUVEC) was 5.3 µM and the IC50 (Focal adhesion kinase 1) was 6 µM.

In the case of `COc1cc(Nc2ncnc(Nc3ccccc3C(=O)NC3CCCC3)n2)cc(OC)c1OC`, the IC50 (HUVEC) is reported as 3.9 µM and the IC50 (Focal adhesion kinase 1) is reported as 5.2 µM.

Work on `COc1cc(Nc2ncnc(Nc3ccccc3C(=O)NCCO)n2)cc(OC)c1OC` yielded an IC50 (HUVEC) of 17.5 µM and an IC50 (Focal adhesion kinase 1) of 23.8 µM.

Work on `COc1cc(Nc2ncnc(Nc3ccccc3C(=O)NCCN(C)C)n2)cc(OC)c1OC` yielded an IC50 (HUVEC) of 9.4 µM and an IC50 (Focal adhesion kinase 1) of 10.2 µM.

In the case of `COC(=O)c1ccccc1Nc1ncnc(Nc2cc(OC)c(OC)c(OC)c2)n1`, the IC50 (HUVEC) is reported as 23.2 µM and the IC50 (Focal adhesion kinase 1) is reported as 17.9 µM.

`COc1ccc(Nc2ncnc(Nc3ccccc3NS(C)(=O)=O)n2)c(OC)c1` showed an IC50 (HUVEC) of 2.7 µM and an IC50 (Focal adhesion kinase 1) of 6.1 µM.

For `CNC(=O)c1ccccc1Nc1ncnc(Nc2ccc(OC)cc2OC)n1`, the IC50 (HUVEC) was 6.5 µM and the IC50 (Focal adhesion kinase 1) was 1.5 µM.

`COc1ccc(Nc2ncnc(Nc3ccccc3NC(C)=O)n2)c(OC)c1` gave an IC50 (HUVEC) of 11.2 µM and an IC50 (Focal adhesion kinase 1) of 21.1 µM.

Compound `CNC(=O)c1ccccc1Nc1ncnc(Nc2ccc(N3CCOCC3)cc2OC)n1` has an IC50 (HUVEC) of 1.5 µM.

`CNC(=O)c1ccccc1Nc1ncnc(Nc2cc(CCC(N)=O)c(OC)c(OC)c2)n1` was tested, and the IC50 (HUVEC) was 1.3 µM and the IC50 (Focal adhesion kinase 1) was 0.3 µM.

With `CS(=O)(=O)Nc1ccccc1Nc1ncnc(Nc2ccc(CN)cc2)n1` the IC50 (HUVEC) was 3.9 µM and the IC50 (Focal adhesion kinase 1) was 2.3 µM.

`CNC(=O)c1ccccc1Nc1ncnc(Nc2ccc(CN)cc2)n1` gave an IC50 (HUVEC) of 2.1 µM and an IC50 (Focal adhesion kinase 1) of 0.16 µM.

With `CCNC(=O)c1ccccc1Nc1ncnc(Nc2ccc(CN)cc2)n1` the IC50 (HUVEC) was 2.8 µM and the IC50 (Focal adhesion kinase 1) was 0.44 µM.

Compound `COc1cc(Nc2nc(Cl)nc(Nc3ccccc3NS(C)(=O)=O)n2)cc(OC)c1OC` has an IC50 (HUVEC) of 9.5 µM and an IC50 (Focal adhesion kinase 1) of 41.9 µM.

`COc1cc(Nc2ncnc(Nc3ccccc3NS(C)(=O)=O)n2)cc(OC)c1OC` was tested, and the IC50 (HUVEC) was 6.1 µM and the IC50 (Focal adhesion kinase 1) was 5.1 µM.

For `CNc1nc(Nc2cc(OC)c(OC)c(OC)c2)nc(Nc2ccccc2NS(C)(=O)=O)n1`, the IC50 (HUVEC) was 34.2 µM and the IC50 (Focal adhesion kinase 1) was 65.9 µM.

In the case of `COc1cc(Nc2nc(Cl)nc(Nc3cccc(NS(C)(=O)=O)c3)n2)cc(OC)c1OC`, the IC50 (HUVEC) is reported as 13.3 µM and the IC50 (Focal adhesion kinase 1) is reported as 57.8 µM.

`COc1cc(Nc2ncnc(Nc3cccc(NS(C)(=O)=O)c3)n2)cc(OC)c1OC` gave an IC50 (HUVEC) of 7.2 µM and an IC50 (Focal adhesion kinase 1) of 9.2 µM.

In the case of `CNc1nc(Nc2cccc(NS(C)(=O)=O)c2)nc(Nc2cc(OC)c(OC)c(OC)c2)n1`, the IC50 (HUVEC) is reported as 10 µM and the IC50 (Focal adhesion kinase 1) is reported as 41.3 µM.

`COc1cc(Nc2nc(C)nc(Nc3ccccc3NS(C)(=O)=O)n2)cc(OC)c1OC` was tested, and the IC50 (HUVEC) was 8.5 µM and the IC50 (Focal adhesion kinase 1) was 7.9 µM.

In the case of `COc1cc(Nc2nc(C)nc(Nc3ccccc3NC(C)=O)n2)cc(OC)c1OC`, the IC50 (HUVEC) is reported as 18.8 µM and the IC50 (Focal adhesion kinase 1) is reported as 50.8 µM.

Compound `COC(=O)Nc1ccccc1Nc1nc(C)nc(Nc2cc(OC)c(OC)c(OC)c2)n1` has an IC50 (HUVEC) of 15.8 µM and an IC50 (Focal adhesion kinase 1) of 35.9 µM.

`COc1cc(Nc2nc(C)nc(Nc3ccccc3NC(=O)N(C)C)n2)cc(OC)c1OC` gave an IC50 (HUVEC) of 27.3 µM and an IC50 (Focal adhesion kinase 1) of 54.3 µM.

Work on `COc1cc(Nc2nc(Nc3ccccc3NC(C)=O)nc(C(F)(F)F)n2)cc(OC)c1OC` yielded an IC50 (HUVEC) of 33.3 µM and an IC50 (Focal adhesion kinase 1) of 126 µM.

Compound `CNC(=O)c1ccccc1Nc1ncnc(Nc2cc(OC)c(OC)c(OC)c2)n1` has an IC50 (HUVEC) of 2.5 µM and an IC50 (Focal adhesion kinase 1) of 0.4 µM.

For `CNC(=O)c1ccccc1Nc1nc(Nc2ccc(N3CCOCC3)cc2OC)ncc1Cl`, the IC50 (HUVEC) was 1 µM.

Source: ChEMBL document CHEMBL2406973, “Synthesis of novel diarylamino-1,3,5-triazine derivatives as FAK inhibitors with anti-angiogenic activity” (Bioorg Med Chem Lett, 2013)
